{
  "source": "patent US7279497B2",
  "about": "“Benzopyran derivatives substituted with secondary amines including imidazole, their preparation and pharmaceutical compositions containing them” (Korea Research Institute of Chemical Technology, priority 2002, dated 2007)",
  "key": {"[1]": {"tested_on": "Chick chorioallantoic membrane (CAM)", "assay": "CAM (chorioallantoic membrane) assay", "assay_type": "in vivo", "protocol": "Chick chorioallantoic membrane (CAM) assays were performed to measure the inhibitory effects on angiogenesis in vivo of the compounds of the formula 1.\nFertilized chick eggs were incubated under constant humidified (90%) egg breeder at 37° C. On the third day of incubation, about 2 mL of egg albumin was aspirated by an 18-gauge hypodermic needle through the small hole drilled at the narrow end of the eggs, to detach the developing CAM from the shell. And the shell covering the air sac was punched out and removed by forcep, and the shell membrane on the floor of the air sac was peeled away. After more incubation of two more days, sample-loaded thermanox coverslips were air-dried, and applied to the CAM surface to test the angiogenic inhibition by the test compounds. Three days later, 1 to 2 mL of 10% fat emulsion (Intralipose) was injected into the chorioallantoic and observed avascular zone under a dissecting microscope. The negative control was implanted only thermanox coverslip, while the positive control was treated with retinoic acid (1 μg/egg). […] Independent experiment was repeated three times and at least more than 20 eggs in each experiment were used."}, "[2]": {"tested_on": "isolated rat aorta", "assay": "Vasorelaxation effects on isolated blood vessels (methoxamine induced vasoconstriction)", "protocol": "The following experiment was conducted to examine whether the compounds of the formula 1 have vasorelaxation effects.\nMale Sprague-Dawly rats (350-450 g, obtained from the Experimental Animal Team of the Korea Research Institute of Chemical Technology) were knocked unconscious by hitting the occipital region, sacrificed by cervical dislocation, and underwent thoracotomy. After being quickly removed, the thoracic aorta was deprived of the adipose tissue and cut into aortic rings of 3 mm width. The aorta was lightly rubbed with a modified Krebs Henseleit buffer (Physiological Salt Solution, PSS) soaked cotton club to remove the inner epithelial layer therefrom. While being suspended in an organ bath containing a physiological buffer, the vascular tissue was allowed to equilibrate under a resting tension of 2 g and then, stand for 1 hour at 37° C. for stabilization with a supply of a carbogen consisting of 95% O2-5% CO2.\nThereafter, the vascular tissue was constricted with 10^−5 M phenylephrine and washed several times with PSS and this procedure was repeated again to ensure the stable reactivity of vascular smooth muscle to repetitive constriction/dilatation.\nIn addition, 3×10^−6 M methoxamine was used to induce an intensive constriction in the vascular smooth muscle. When the vasoconstriction induced by the methoxamine reached and maintained a maximum, test compounds and controls were cumulatively added to the organ baths in concentrations of 1, 3, 10 and 30 μM so as to induce vasodilatation. Cromakalim, BMS-180448, and BMS-191095 were used as the controls.\nFollowing the addition of test compounds, the change in the maximal constriction induced by methoxamine was calculated to plot a concentration-relaxation response curve. Through a linear regression analysis, IC50, the drug concentration at which the vascular tissue is 50% dilated, was obtained for each compound."}, "[3]": {"tested_on": "blood vessel formation in Matrigel plugs", "assay": "In vivo mouse matrigel plug assay (hemoglobin content of plug)", "design": "species or system C57BL/6 mice", "protocol": "Antiangiogenic activities in vivo of the compounds of the formula 1 were determined by mouse matrigel plug assay.\nThe mixture of Matrigel, heparin (30 units), and bFGF (25 ng) were injected subcutaneously into C57BL/6 mice. The test compounds were injected subcutaneously at 2.2 mg/mL with matrigel, or administrated orally at 2 mg/day (twice a day, each 1 mg) during 4 days (total 8 mg/mouse). After 4-7 days, the skin of the mouse was pulled back, and matrigel plug was excised. The hemoglobin contents inside the Matrigel plugs were measured using the Drabkin method and Drabkin reagent (kit 525, Sigma) for the quantitation of blood vessel formation."}, "[4]": {"tested_on": "isolated rat hearts", "assay": "Cardioprotective activity in isolated ischemic rat heart (Langendorff)", "settings": "10 μM", "protocol": "In order to determine whether the compounds of the chemical formula 1 are protective for ischemic hearts in vitro, experiments determining the anti-ischemic effects of the compounds on isolated rat hearts were conducted as follows.\nFor all in vitro studies, isolated rat hearts were used according to the published methods after some modification [HJ Ring, Arzneim.-Forsch./Drug Res. 39 (II), 1535 (1989): T. Krzeminski, et al., J. Pharmacological Methods, 25, 95, (1991)]\nMale Sprague-Dawley rats weighing 300-450 g were anesthetized with sodium pentobarbital (100 mg/kg, i.p.). The tail vein was injected with heparin (1,000 U/kg) and then the trachea was intubated. While rats were mechanically ventilated with a rodent ventilator (Model 7025, Ugobasile, Italy), their hearts were perfused in situ with oxygenated modified Krebs-Henseleit bicarbonate buffer (described herein) by retrograde aortic cannulation. The hearts were then excised and moved to a Langendorff apparatus (H.S.E., Germany), where they were perfused with oxygenated modified Krebs-Henseleit bicarbonate buffer containing (in mM) NaCl 116, NaHCO3 24.9, KCl 4.7, MgSO4 1.1, KH2PO4 1.17, CaCl2 2.52, glucose 8.32 and pyruvate 2.0 at a constant perfusion pressure (85 mm Hg). A latex balloon filled with solvent (ethanol:water=1:1 (v/v)) and attached to a metal cannula was placed in the left ventricle through pulmonary vein and connected to a Isotec pressure transducer (H.S.E., Germany) for measurement of left ventricular pressure (LVP). The hearts were allowed to equilibrate for 15 min, at which time left ventricular end-diastolic pressure (EDP) was adjusted to 5 mm Hg and this balloon volume was maintained throughout the experiment. Then, baseline contractile function, heart rate (HR), and coronary flow (CF) (extracorporeal electromagnetic flow probe, Narco Bio-System, U.S.A.) were measured. Cardiac contractile function was calculated by subtracting LVEDP from LV peak systolic pressure (LVSP), yielding developed pressure (LVDP). Double product (DP), another important parameter for assessing cardiac performance, was calculated by multiplying HR by LVDP. Throughout the experiment, all these parameters were measured, and calculated before and 10 min after pretreatment with each compound and 30 min after the onset of reperfusion with buffer. Data on reperfusion DP were further expressed as the percentage to pretreatment DP.\nAfter stabilization for 15 min, the hearts were pretreated for 10 min with respective drugs (10 μM, 0.04% DMSO) or vehicle (0.04% DMSO) before onset of global ischemia; test agents were administered directly into the oxygenator of the Langendorff apparatus immediately above the aortic root in a retrograde fashion as solutions in the perfusate. We then rendered the hearts globally ischemic by completely shutting off the perfusate for 30 min. Severity of ischemia was determined as the time to contracture (TTC, min) during global ischemia in which the first 5 mmHg increase in EDP was observed. Then, the hearts were reperfused and, 30 min later, contractile function (LVDP, DP) and cumulative reperfusion lactate dehydrogenase (LDH) release were measured. LDH was measured as a sensitive index for loss of cell viability with a kit supplied by Boerhinger Mannheim based on the technique of Wroblewski and LaDue [F. Wroblewski and J S. La Due, Proc Soc Exp Biol Med 90, 210, (1955)]."}},
  "note": "Values joined by “and” are separate entries in the source; they are usually repeats but may differ in a detail not shown here. Equal entries are not always repeated.",
  "data": [
    {"smiles": "COC(OC)[C@@]1(C)Oc2ccc([N+](=O)[O-])cc2[C@@H](N(Cc2ncc[nH]2)c2ccc(Cl)cc2)[C@@H]1O", "note": "[Example 1, (2S,3S,4R)-3,4-dihydro-2-dimethoxymethyl-3-hydroxy-2-methyl-6-nitro-4-[N-(4-chlorophenyl)-N-(1H-imidazol-2-ylmethyl)amino]-2H-1-benzopyran]", "values": [
      {"measurement": "% Inhibition (positive eggs)", "setting": "[1]; 0.5 μM/egg", "result": 62, "unit": "%"},
      {"measurement": "% Inhibition (positive eggs)", "setting": "[1]; 1.5 μg/egg", "result": 84, "unit": "%"},
      {"measurement": "IC50", "setting": "[2]; rat aorta constricted with methoxamine (3 μM)", "result": 9.83, "unit": "µM"},
      {"measurement": "vasorelaxant potency lower than BMS-180448", "setting": "[2]; ratio of IC50", "result": 7, "unit": "times"},
      {"measurement": "% Inhibition (hemoglobin quantity)", "setting": "[3]; S. C, 2.2 mg/mL with matrigel", "result": 79, "unit": "%"},
      {"measurement": "% Inhibition (hemoglobin quantity)", "setting": "[3]; oral, 2 mg/day during 4 days", "result": 94, "unit": "%"},
      {"measurement": "LDVP × HR (%)", "setting": "[4]; 30 min reperfusion, % of pretreatment DP", "result": 55.7, "unit": "%"},
      {"measurement": "TTC (time to contracture)", "setting": "[4]; global ischemia", "result": "28 min and 28.0 min"},
      {"measurement": "EDP", "setting": "[4]; reperfusion", "result": 24.0, "unit": "MmHg"},
      {"measurement": "LDH (reperfusion release)", "setting": "[4]; reperfusion", "result": 10.7, "unit": "U/g"}
    ]}
  ]
}
